# Laboratory results published in patent US20190314352A1, “ADMINISTRATION OF DIPEPTIDYL PEPTIDASE INHIBITORS” (Takeda Pharmaceutical Company Limited, priority 2005, published 2019).
# Experiments:
# [1] = tested on: newly diagnosed type II diabetes patients; assay: 4-hour postprandial plasma glucose (Cavg) following breakfast, 14-day repeat-dose placebo-controlled study; type: in vivo, human; conditions: for mean reduction from baseline in Cavg B / mean reduction in Cavg B calculated as a percent change: fourteen days of treatment; for 4-hour postprandial plasma glucose following breakfast, Day 14 Actual, Mean: 14 days; for 4-hour postprandial plasma glucose, Difference in Change from Baseline from Placebo, LS Mean: Day 14, ANCOVA; for 4-hour postprandial plasma glucose following breakfast, Day 14 Change from Baseline, Mean: baseline Day −1
# Description: Data was collected at each study visit.
# The primary efficacy analysis was based on change in mean 4-hour prandial glucose concentrations (Cavg) from Day −1 to Day 14. Table A summarizes the primary efficacy endpoint measured following breakfast.
# [2] = tested on: newly diagnosed type II diabetes patients; assay: Glycosylated hemoglobin (HbA1c), 14-day repeat-dose placebo-controlled study; type: in vivo, human; conditions: for HbA1c, Difference in Change from Baseline from Placebo, LS Mean: Day 15, ANCOVA; for HbA1c, Day 15 Change from Baseline, Mean: baseline Day −7
# Experimental: (§1) Blood samples were collected on Days 6, 16, 17, and 21 for analysis of efficacy based on change in mean 4-hour postprandial plasma glucose (Cavg) from Day −1 to Day 14. Secondary efficacy endpoints included mean 4-hour prandial fructosamine, and glycosylated hemoglobin (HbA1c). Data was collected at each study visit. Inhibition of DPPIV activity was also determined using an assay validated for human plasma samples.
# [3] = tested on: newly diagnosed type II diabetes patients; assay: Fasting fructosamine, 14-day repeat-dose placebo-controlled study; type: in vivo, human; conditions: for Fasting Fructosamine, Day 15 Actual, Mean: type II diabetes patients; for Fasting Fructosamine, Difference in Change from Baseline from Placebo, LS Mean: Day 15, ANCOVA; for Fasting Fructosamine, Day 15 Change from Baseline, Mean: baseline Day −7
# Experimental: as §1
# [4] = tested on: Male db/db (BKS.Cg-+Lepr^db/+Lepr^db) mice; assay: Co-administration with pioglitazone: glycosylated hemoglobin levels in mice; type: in vivo; conditions: 21 days in powder chow: 0.03% (w/w) benzoate salt of Compound I and/or 0.0075% (w/w) pioglitazone hydrochloride, n=8, mean ± SD
# Experimental: Male db/db (BKS.Cg-+Lepr^db/+Lepr^db) mice (6 weeks of age, CLEA Japan (Tokyo, Japan)) were divided into 4 groups (n=8 in each group) comprising Group A to Group D. Group A had free access to CE-2 powder chow (CLEA Japan) for 21 days. […] Group C had free access to CE-2 powder chow (CLEA Japan) containing 0.0075% (w/w) of pioglitazone hydrochloride for 21 days. The dose of pioglitazone in Group C was calculated to be 15.4±1.5 (mean±SD) mg/kg body weight/day. […] During 21 days of administration of the powder chow, there were not significant differences in the administration amount of the powder chow in the above 4 groups. After 21 days of administration of the powder chow, blood samples were taken from the orbital veins of the mice by capillary pipette under feeding condition, and Glycosylated hemoglobin levels were measured by HPLC-based method using TOSOH automated GHb Analyzer HLC-723 G7 (TOSOH, Japan).
# The values in the table means average (n=8)±standard deviation.
# [5] = tested on: newly diagnosed type II diabetes patients; assay: Glycosylated hemoglobin (HbA1c), 14-day repeat-dose placebo-controlled study; type: in vivo, human; conditions: one time per day at the specified dosage levels, extended treatment; expected
# [6] = tested on: newly diagnosed type II diabetes patients; assay: Fasting fructosamine, 14-day repeat-dose placebo-controlled study; type: in vivo, human; conditions: for Fasting Fructosamine, Difference in Change from Baseline from Placebo, LS Mean: Day 15, ANCOVA
smiles,measurement,setting,value
"Cn1c(=O)cc(N2CCC[C@@H](N)C2)n(Cc2ccccc2C#N)c1=O [Compound I, 2-[[6-[(3R)-3-amino-1-piperidinyl]-3,4-dihydro-3-methyl-2,4-dioxo-1(2H)-pyrimidinyl]methyl]-benzonitrile]",mean reduction from baseline in Cavg B,[1]; 25 mg group,33 mg/dL
same,mean reduction in Cavg B calculated as a percent change,[1]; 25 mg group,15%
same,"4-hour postprandial plasma glucose following breakfast, Day 14 Actual, Mean","[1]; 25 mg/day, type II diabetes patients",203.2 mg/dL
same,"4-hour postprandial plasma glucose, Difference in Change from Baseline from Placebo, LS Mean",[1]; 25 mg/day,-39.9 mg/dL
same,"4-hour postprandial plasma glucose following breakfast, Day 14 Change from Baseline, Mean",[1]; 25 mg/day,-32.5 mg/dL
same,mean reduction from baseline in Cavg B,[1]; 100 mg group,37 mg/dL
same,mean reduction in Cavg B calculated as a percent change,[1]; 100 mg group,17%
same,"4-hour postprandial plasma glucose following breakfast, Day 14 Actual, Mean","[1]; 100 mg/day, type II diabetes patients",173.5 mg/dL
same,"4-hour postprandial plasma glucose, Difference in Change from Baseline from Placebo, LS Mean",[1]; 100 mg/day,-48.6 mg/dL
same,"4-hour postprandial plasma glucose following breakfast, Day 14 Change from Baseline, Mean",[1]; 100 mg/day,-37.2 mg/dL
same,mean reduction from baseline in Cavg B,[1]; 400 mg group,66 mg/dL
same,mean reduction in Cavg B calculated as a percent change,[1]; 400 mg group,24%
same,"4-hour postprandial plasma glucose following breakfast, Day 14 Actual, Mean","[1]; 400 mg/day, type II diabetes patients",198.6 mg/dL
same,"4-hour postprandial plasma glucose, Difference in Change from Baseline from Placebo, LS Mean",[1]; 400 mg/day,-68.3 mg/dL
same,"4-hour postprandial plasma glucose following breakfast, Day 14 Change from Baseline, Mean",[1]; 400 mg/day,-65.6 mg/dL
same,"4-hour postprandial plasma glucose following breakfast, Day 14 Actual, Mean","[1]; All Active (25, 100, 400 mg/day combined)",191.8 mg/dL
same,"4-hour postprandial plasma glucose, Difference in Change from Baseline from Placebo, LS Mean",[1]; All Active,-52.3 mg/dL
same,"4-hour postprandial plasma glucose following breakfast, Day 14 Change from Baseline, Mean",[1]; All Active,-44.3 mg/dL
same,"Glycosylated Hemoglobin (HbA1c), Day 15 Actual, Mean","[2]; 25 mg/day for 14 days, type II diabetes patients",7.76%
same,"HbA1c, Difference in Change from Baseline from Placebo, LS Mean",[2]; 25 mg/day,−0.27%
same,"HbA1c, Day 15 Change from Baseline, Mean",[2]; 25 mg/day,−0.22%
same,"Glycosylated Hemoglobin (HbA1c), Day 15 Actual, Mean","[2]; 100 mg/day for 14 days, type II diabetes patients",7.25%
same,"HbA1c, Difference in Change from Baseline from Placebo, LS Mean",[2]; 100 mg/day,−0.45%
same,"HbA1c, Day 15 Change from Baseline, Mean",[2]; 100 mg/day,−0.40%
same,"Glycosylated Hemoglobin (HbA1c), Day 15 Actual, Mean","[2]; 400 mg/day for 14 days, type II diabetes patients",7.82%
same,"HbA1c, Difference in Change from Baseline from Placebo, LS Mean",[2]; 400 mg/day,−0.32%
same,"HbA1c, Day 15 Change from Baseline, Mean",[2]; 400 mg/day,−0.28%
same,"Glycosylated Hemoglobin (HbA1c), Day 15 Actual, Mean","[2]; All Active, 14 days",7.60%
same,"HbA1c, Difference in Change from Baseline from Placebo, LS Mean",[2]; All Active,−0.35%
same,"HbA1c, Day 15 Change from Baseline, Mean",[2]; All Active,−0.30%
same,"Fasting Fructosamine, Day 15 Actual, Mean",[3]; 25 mg/day for 14 days,310.7 µmol/L
same,"Fasting Fructosamine, Difference in Change from Baseline from Placebo, LS Mean",[3]; 25 mg/day,-9.6 µmol/L
same,"Fasting Fructosamine, Day 15 Actual, Mean",[3]; 100 mg/day for 14 days,263.9 µmol/L
same,"Fasting Fructosamine, Day 15 Change from Baseline, Mean",[3]; 100 mg/day,-25.6 µmol/L
same,"Fasting Fructosamine, Day 15 Actual, Mean",[3]; 400 mg/day for 14 days,312.6 µmol/L
same,"Fasting Fructosamine, Day 15 Change from Baseline, Mean",[3]; 400 mg/day,-19.9 µmol/L
same,"Fasting Fructosamine, Difference in Change from Baseline from Placebo, LS Mean",[3]; All Active,-28.6 µmol/L
same,"Fasting Fructosamine, Day 15 Change from Baseline, Mean",[3]; All Active,-12.9 µmol/L
same,Glycosylated Hemoglobin (%),[4],5.8 ± 0.5%
same,decrease of hemoglobin A1c level compared to placebo control,[5],greater than 0.5%
same,"Fasting Fructosamine, Day 15 Change from Baseline, Mean","[6]; 25 mg/day, baseline Day −7",6.3 µmol/L
same,"Fasting Fructosamine, Difference in Change from Baseline from Placebo, LS Mean",[6]; 100 mg/day,-42.9 µmol/L
same,"Fasting Fructosamine, Difference in Change from Baseline from Placebo, LS Mean",[6]; 400 mg/day,-33.2 µmol/L
same,"Fasting Fructosamine, Day 15 Actual, Mean","[6]; All Active, 14 days",295.3 µmol/L
"CCc1ccc(CCOc2ccc(CC3SC(=O)NC3=O)cc2)nc1 (stereo not drawn) [Pioglitazone, 5-{[4-(2-(5-ethyl-2-pyridyl)ethoxy)phenyl]-methyl}-thiazolidine-2,4-dione, reference compound]",Glycosylated Hemoglobin (%),[4],5.0 ± 0.7%
